Experimental data: EP3033337B1, “SUBSTITUTED IMIDAZOLES AS N-TYPE CALCIUM CHANNEL BLOCKERS” (Janssen Pharmaceutica NV, priority 2013, dated 2015)
pIC50: −log10 of the molar value. Where two headings read alike, the source gives them in different places.

Assays:
[1] = target: T1, human N-type Ca channel (Homo sapiens, UniProt Q00975); assay: Calcium influx assay (FDSS), KCl depolarization, Fluo8 dye; type: cell-based; design: host or cells: HEK 293
How it was run: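 HEK293 cells stably expressing the human N-type Ca channel were loaded with Fluo8 and washed in choline-based buffer (pH 7.2, 2 mM CaCl2, 2 mM KCl). Cells were preincubated with serially diluted compound for 15 min in the dark. Ca influx was then recorded by fluorescence after depolarization with 100 mM KCl.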

[2] = target: T1, human N-type Ca channel; assay: Electrophysiological response, QPatch (depolarization -80 mV to +20 mV)
[3] = HEK 293 cells expressing human N-type Ca channel, 100 mM KCl, read-out: N Type IC50 Data FDSS
[4] = N Type IC50 Data Qpatch Pulse=1, Pulse=1, concentration range 0.01-1 µM
[5] = read-out: N Type IC50 Data Qpatch Pulse=15, Pulse=15, concentration range 0.01-1 µM
[6] = N Type IC50 Data Qpatch Pulse=15, Pulse=15, concentration range 0.3-10 µM
[7] = read-out: Qpatch Pulse=1 (percent inhibition)
[8] = read-out: Qpatch Pulse=15 (percent inhibition)
[9] = N Type IC50 Data Qpatch Pulse=1, Pulse=1, concentration range 0.3-10 µM
[10] = Pulse=1, concentration range 0.01-0.3 µM
[11] = Pulse=15, concentration range 0.01-0.3 µM
[12] = N Type IC50 Data Qpatch Pulse=1, Pulse=1, concentration range 0.01-0.3 µM
[13] = read-out: N Type IC50 Data Qpatch Pulse=1, Pulse=1, concentration range 0.01-1 µM

T1 sequence (Q00975 whole entry): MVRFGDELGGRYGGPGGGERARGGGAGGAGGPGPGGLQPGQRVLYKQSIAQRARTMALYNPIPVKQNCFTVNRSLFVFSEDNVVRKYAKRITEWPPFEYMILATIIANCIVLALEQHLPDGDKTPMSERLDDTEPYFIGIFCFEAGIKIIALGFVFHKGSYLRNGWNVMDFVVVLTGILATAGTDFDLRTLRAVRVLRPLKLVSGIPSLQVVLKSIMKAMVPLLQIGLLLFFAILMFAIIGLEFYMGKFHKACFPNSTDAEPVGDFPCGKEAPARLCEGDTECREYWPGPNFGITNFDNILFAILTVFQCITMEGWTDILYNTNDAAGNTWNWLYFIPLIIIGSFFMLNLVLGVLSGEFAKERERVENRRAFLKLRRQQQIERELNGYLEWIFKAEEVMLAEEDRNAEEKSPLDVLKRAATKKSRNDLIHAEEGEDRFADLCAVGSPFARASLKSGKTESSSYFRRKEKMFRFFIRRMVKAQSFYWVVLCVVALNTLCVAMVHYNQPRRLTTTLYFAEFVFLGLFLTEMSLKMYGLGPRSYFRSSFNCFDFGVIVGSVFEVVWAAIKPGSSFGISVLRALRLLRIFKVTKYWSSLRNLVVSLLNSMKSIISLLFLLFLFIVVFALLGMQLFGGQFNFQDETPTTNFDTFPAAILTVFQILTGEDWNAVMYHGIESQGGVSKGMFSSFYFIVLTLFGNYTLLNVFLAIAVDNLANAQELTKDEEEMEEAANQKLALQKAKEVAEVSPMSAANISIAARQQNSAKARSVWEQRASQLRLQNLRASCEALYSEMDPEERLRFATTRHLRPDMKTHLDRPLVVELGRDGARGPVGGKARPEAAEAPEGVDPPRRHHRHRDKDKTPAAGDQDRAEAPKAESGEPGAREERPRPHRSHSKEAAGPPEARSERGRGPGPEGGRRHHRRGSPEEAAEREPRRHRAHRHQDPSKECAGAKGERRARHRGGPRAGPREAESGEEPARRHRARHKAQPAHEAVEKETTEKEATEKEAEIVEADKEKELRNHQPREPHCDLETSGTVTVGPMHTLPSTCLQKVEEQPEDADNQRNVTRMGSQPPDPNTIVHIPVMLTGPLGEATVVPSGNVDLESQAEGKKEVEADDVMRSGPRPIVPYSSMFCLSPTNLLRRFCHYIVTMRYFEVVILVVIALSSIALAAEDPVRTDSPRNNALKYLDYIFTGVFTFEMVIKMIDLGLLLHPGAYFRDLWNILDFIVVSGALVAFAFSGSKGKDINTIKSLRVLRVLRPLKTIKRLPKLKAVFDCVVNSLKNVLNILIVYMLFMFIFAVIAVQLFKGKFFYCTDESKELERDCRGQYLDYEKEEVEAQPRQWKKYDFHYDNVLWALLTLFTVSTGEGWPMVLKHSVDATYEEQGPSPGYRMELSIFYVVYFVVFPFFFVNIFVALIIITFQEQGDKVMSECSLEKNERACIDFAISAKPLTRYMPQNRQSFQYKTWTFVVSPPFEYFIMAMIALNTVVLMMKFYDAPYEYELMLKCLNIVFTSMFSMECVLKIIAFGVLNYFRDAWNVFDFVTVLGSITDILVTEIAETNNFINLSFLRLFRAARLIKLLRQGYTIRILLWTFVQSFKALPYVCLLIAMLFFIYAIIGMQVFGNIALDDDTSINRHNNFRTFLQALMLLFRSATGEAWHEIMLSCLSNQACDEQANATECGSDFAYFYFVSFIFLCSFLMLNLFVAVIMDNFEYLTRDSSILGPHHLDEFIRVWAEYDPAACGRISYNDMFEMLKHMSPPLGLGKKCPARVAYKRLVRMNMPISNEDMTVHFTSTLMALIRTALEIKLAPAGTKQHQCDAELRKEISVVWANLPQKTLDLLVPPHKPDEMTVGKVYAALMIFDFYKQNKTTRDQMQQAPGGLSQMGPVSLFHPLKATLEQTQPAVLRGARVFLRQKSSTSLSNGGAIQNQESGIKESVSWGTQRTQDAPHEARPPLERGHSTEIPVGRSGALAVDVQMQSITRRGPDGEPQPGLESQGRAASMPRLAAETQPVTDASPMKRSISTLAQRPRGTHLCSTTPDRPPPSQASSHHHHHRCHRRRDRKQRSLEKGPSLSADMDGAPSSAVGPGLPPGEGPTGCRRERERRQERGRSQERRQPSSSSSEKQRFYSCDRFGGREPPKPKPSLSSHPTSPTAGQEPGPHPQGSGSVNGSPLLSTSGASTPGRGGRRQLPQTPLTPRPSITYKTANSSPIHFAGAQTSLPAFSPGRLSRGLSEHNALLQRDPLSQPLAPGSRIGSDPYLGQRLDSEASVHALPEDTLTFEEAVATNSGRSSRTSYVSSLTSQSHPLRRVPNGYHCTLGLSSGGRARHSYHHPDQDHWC
T1 sequence (P54284 whole entry partner): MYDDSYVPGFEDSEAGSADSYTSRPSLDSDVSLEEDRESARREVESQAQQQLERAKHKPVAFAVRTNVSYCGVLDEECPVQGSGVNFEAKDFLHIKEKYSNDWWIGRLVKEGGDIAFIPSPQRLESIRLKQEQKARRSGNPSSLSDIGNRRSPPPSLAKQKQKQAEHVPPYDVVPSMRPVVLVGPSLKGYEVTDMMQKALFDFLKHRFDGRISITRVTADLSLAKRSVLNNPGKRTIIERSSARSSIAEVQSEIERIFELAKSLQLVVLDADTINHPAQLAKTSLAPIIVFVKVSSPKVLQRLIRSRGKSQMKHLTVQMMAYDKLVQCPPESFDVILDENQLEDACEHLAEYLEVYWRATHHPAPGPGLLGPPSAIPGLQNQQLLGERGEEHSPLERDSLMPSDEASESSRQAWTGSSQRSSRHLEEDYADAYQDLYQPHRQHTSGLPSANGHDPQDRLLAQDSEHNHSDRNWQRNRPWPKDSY
T1 sequence (P54289 25-956 partner limits assumed): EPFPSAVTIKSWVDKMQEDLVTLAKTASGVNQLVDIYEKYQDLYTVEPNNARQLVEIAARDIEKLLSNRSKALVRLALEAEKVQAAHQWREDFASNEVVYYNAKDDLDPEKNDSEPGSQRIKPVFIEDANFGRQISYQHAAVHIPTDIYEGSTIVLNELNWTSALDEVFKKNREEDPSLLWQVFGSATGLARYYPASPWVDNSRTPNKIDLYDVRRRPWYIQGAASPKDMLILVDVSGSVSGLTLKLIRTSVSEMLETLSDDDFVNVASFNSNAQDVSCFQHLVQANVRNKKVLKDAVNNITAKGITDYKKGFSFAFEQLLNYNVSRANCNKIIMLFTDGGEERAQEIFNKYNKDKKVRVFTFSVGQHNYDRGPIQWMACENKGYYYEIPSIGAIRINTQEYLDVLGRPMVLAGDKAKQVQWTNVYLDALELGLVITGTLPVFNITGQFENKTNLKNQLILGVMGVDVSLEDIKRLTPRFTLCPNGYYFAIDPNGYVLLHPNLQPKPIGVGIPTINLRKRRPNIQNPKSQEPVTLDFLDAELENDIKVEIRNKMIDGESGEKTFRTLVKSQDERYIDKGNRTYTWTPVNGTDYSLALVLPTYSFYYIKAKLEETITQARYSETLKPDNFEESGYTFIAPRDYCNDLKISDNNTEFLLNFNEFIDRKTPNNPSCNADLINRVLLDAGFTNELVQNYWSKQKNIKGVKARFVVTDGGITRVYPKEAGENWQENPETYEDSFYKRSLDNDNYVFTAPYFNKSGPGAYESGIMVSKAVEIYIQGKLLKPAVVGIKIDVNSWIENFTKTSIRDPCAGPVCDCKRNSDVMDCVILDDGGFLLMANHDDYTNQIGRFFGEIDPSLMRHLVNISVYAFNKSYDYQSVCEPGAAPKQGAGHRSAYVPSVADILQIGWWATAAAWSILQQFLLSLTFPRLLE
T1 sequence (P54289 957-1103 partner limits assumed): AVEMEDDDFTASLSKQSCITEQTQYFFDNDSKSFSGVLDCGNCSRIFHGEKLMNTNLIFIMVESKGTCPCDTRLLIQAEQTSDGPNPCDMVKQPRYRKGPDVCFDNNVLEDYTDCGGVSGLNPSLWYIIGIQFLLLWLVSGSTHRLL

COc1ncccc1-c1nc(C2CC(C)(C)OC(C)(C)C2)cn1-c1ccc(C#N)cc1F [Compound 76, 3-fluoro-4-(2-(2-methoxypyridin-3-yl)-4-(2,2,6,6-tetramethyltetrahydro-2H-pyran-4-yl)-1H-imidazol-1-yl)benzonitrile]
pIC50 [1, 3]: 6.82
pIC50 [2, 4]: < 6.00
pIC50 [2, 5]: < 6.00

COc1cc(-n2cc(C3CC(C)(C)OC(C)(C)C3)nc2-c2cccnc2OC)ccc1C#N [Compound 77, 2-methoxy-4-(2-(2-methoxypyridin-3-yl)-4-(2,2,6,6-tetramethyltetrahydro-2H-pyran-4-yl)-1H-imidazol-1-yl)benzonitrile]
pIC50 [1, 3]: 5.00
pIC50 [2, 4]: < 6.00
pIC50 [2, 5]: < 6.00

COc1ncccc1-c1nc(C2CC(C)(C)OC(C)(C)C2)cn1-c1ccc(C#N)c(Cl)c1 [Compound 78, 2-chloro-4-(2-(2-methoxypyridin-3-yl)-4-(2,2,6,6-tetramethyltetrahydro-2H-pyran-4-yl)-1H-imidazol-1-yl)benzonitrile]
pIC50 [1, 3]: 6.63
pIC50 [2, 5]: < 6.00

COc1ncccc1-c1nc(C2CC(C)(C)OC(C)(C)C2)cn1-c1ccc(F)c(C#N)c1 [Compound 79, 2-fluoro-5-(2-(2-methoxypyridin-3-yl)-4-(2,2,6,6-tetramethyltetrahydro-2H-pyran-4-yl)-1H-imidazol-1-yl)benzonitrile]
pIC50 [1, 3]: 5.88
pIC50 [2, 6]: 5.44
inhibition at 10 µM [2, 7]: 29%

COc1ncccc1-c1nc(C2CC(C)(C)OC(C)(C)C2)cn1-c1ccc(C#N)c(F)c1 [Compound 80, 2-fluoro-4-(2-(2-methoxypyridin-3-yl)-4-(2,2,6,6-tetramethyltetrahydro-2H-pyran-4-yl)-1H-imidazol-1-yl)benzonitrile]
pIC50 [1, 3]: 6.48
inhibition at 10 µM [2, 8]: 28%

COc1ccccc1-c1nc(C2CC(C)(C)OC(C)(C)C2)cn1-c1ccc(C#N)c(F)c1 [Compound 81, 2-fluoro-4-(2-(2-methoxyphenyl)-4-(2,2,6,6-tetramethyltetrahydro-2H-pyran-4-yl)-1H-imidazol-1-yl) benzonitrile]
pIC50 [1, 3]: 6.70
pIC50 [2, 9]: 5.17
pIC50 [2, 6]: 5.55

COc1ncccc1-c1nc(C2CC(C)(C)OC(C)(C)C2)cn1-c1cc(F)c(C#N)c(F)c1 [Compound 82, 2,6-difluoro-4-(2-(2-methoxypyridin-3-yl)-4-(2,2,6,6-tetramethyltetrahydro-2H-pyran-4-yl)-1H-imidazol-1-yl) benzonitrile]
pIC50 [1, 3]: 5.49
N Type IC50 Data Qpatch Pulse=1 [2, 10]: poor fit(0.01-0.3 µM)
N Type IC50 Data Qpatch Pulse=15 [2, 11]: poor fit(0.01-0.3 µM)

COc1ccccc1-c1nc(C2CC(C)(C)OC(C)(C)C2)cn1-c1c(F)cc(C#N)cc1F [Compound 83, 3,5-difluoro-4-(2-(2-methoxyphenyl)-4-(2,2,6,6-tetramethyltetrahydro-2H-pyran-4-yl)-1H-imidazol-1-yl)benzonitrile]
pIC50 [1]: 7.31
N Type IC50 Data Qpatch Pulse=1 [2, 10]: poor fit(0.01-0.3 µM)
N Type IC50 Data Qpatch Pulse=15 [2, 11]: poor fit(0.01-0.3 µM)

COc1ncccc1-c1nc(C2CC(C)(C)OC(C)(C)C2)cn1-c1ccc(Cl)c(C#N)c1 [Compound 84, 2-chloro-5-(2-(2-methoxypyridin-3-yl)-4-(2,2,6,6-tetramethyltetrahydro-2H-pyran-4-yl)-1H-imidazol-1-yl)benzonitrile]
pIC50 [1, 3]: 6.44
pIC50 [2, 5]: < 6.00

COc1ccc(-n2cc(C3CC(C)(C)OC(C)(C)C3)nc2-c2cccnc2OC)cc1C#N [Compound 85, 2-methoxy-5-(2-(2-methoxypyridin-3-yl)-4-(2,2,6,6-tetramethyltetrahydro-2H-pyran-4-yl)-1H-imidazol-1-yl)benzonitrile]
pIC50 [1, 3]: 5.19
pIC50 [2, 5]: < 6.00

COc1ncncc1-c1nc(C2CC(C)(C)OC(C)(C)C2)cn1-c1ccc(C#N)cc1 [Compound 86, 4-(2-(4-methoxypyrimidin-5-yl)-4-(2,2,6,6-tetramethyltetrahydro-2H-pyran-4-yl)-1H-imidazol-1-yl)benzonitrile]
pIC50 [1, 3]: 5.89
pIC50 [2, 5]: < 6.00

COc1nccnc1-c1nc(C2CC(C)(C)OC(C)(C)C2)cn1-c1ccc(C#N)cc1 [Compound 87, 4-(2-(3-methoxypyrazin-2-yl)-4-(2,2,6,6-tetramethyltetrahydro-2H-pyran-4-yl)-1H-imidazol-1-yl)benzonitrile]
pIC50 [1, 3]: 5.21
N Type IC50 Data Qpatch Pulse=1 [2, 10]: poor fit(0.01-0.3 µM)
N Type IC50 Data Qpatch Pulse=15 [2, 11]: poor fit(0.01-0.3 µM)

COc1nccnc1-c1nc(C2CC(C)(C)OC(C)(C)C2)cn1-c1ccc(C#N)c(F)c1 [Compound 88, 2-fluoro-4-(2-(3-methoxypyrazin-2-yl)-4-(2,2,6,6-tetramethyltetrahydro-2H-pyran-4-yl)-1H-imidazol-1-yl)benzonitrile]
pIC50 [1, 3]: 5.66
pIC50 [2, 12]: 6.46
N Type IC50 Data Qpatch Pulse=15 [2, 11]: poor fit(0.01-0.3 µM)

CCOc1ncccc1-c1nc(C2CC(C)(C)OC(C)(C)C2)cn1-c1ccc(C#N)c(F)c1 [Compound 89, 4-(2-(2-ethoxypyridin-3-yl)-4-(2,2,6,6-tetramethyltetrahydro-2H-pyran-4-yl)-1H-imidazol-1-yl)-2-fluorobenzonitrile]
pIC50 [1, 3]: 6.69
pIC50 [2, 12]: 6.29
N Type IC50 Data Qpatch Pulse=15 [2, 11]: poor fit(0.01-0.3 µM)

COc1ccccc1-c1nc(C2CC(C)(C)OC(C)(C)C2)c(C)n1-c1ccc(Cl)cc1 [Compound 90, 1-(4-chlorophenyl)-2-(2-methoxyphenyl)-5-methyl-4-(2,2,6,6-tetramethyltetrahydro-2H-pyran-4-yl)-1H-imidazole]
pIC50 [1, 3]: 6.92
N Type IC50 Data Qpatch Pulse=1 [2, 10]: poor fit(0.01-0.3 µM)
N Type IC50 Data Qpatch Pulse=15 [2, 11]: poor fit(0.01-0.3 µM)

COc1ncccc1-c1nc(C2CC(C)(C)OC(C)(C)C2)c(Cl)n1-c1ccc(C#N)cc1 [Compound 91, 4-(5-chloro-2-(2-methoxypyridin-3-yl)-4-(2,2,6,6-tetramethyltetrahydro-2H-pyran-4-yl)-1H-imidazol-1-yl)benzonitrile]
pIC50 [1, 3]: 5.84
inhibition at 10 µM [2, 7]: 58%
inhibition at 10 µM [2, 8]: 62%

COc1ncccc1-c1nc(C2CC(C)(C)OC(C)(C)C2)c(Cl)n1-c1ccc(F)cc1 [Compound 92, 3-(5-chloro-1-(4-fluorophenyl)-4-(2,2,6,6-tetramethyltetrahydro-2H-pyran-4-yl)-1H-imidazol-2-yl)-2-methoxypyridine]
pIC50 [1, 3]: 7.39
pIC50 [2, 4]: 6.60
pIC50 ([2]; N Type IC50 Data Qpatch Pulse=15, Pulse=15, concentration range 0.01-1 µM): 6.57

COc1ncccc1-c1nc(C2CC(C)(C)OC(C)(C)C2)c(Cl)n1-c1ccc(Cl)cc1 [Compound 93, 3-(5-chloro-1-(4-chlorophenyl)-4-(2,2,6,6-tetramethyltetrahydro-2H-pyran-4-yl)-1H-imidazol-2-yl)-2-methoxypyridine]
pIC50 [1]: 6.82
pIC50 [2, 9]: 5.19
pIC50 [2, 6]: 5.74

COc1ccccc1-c1nc(C2CC(C)(C)OC(C)(C)C2)cn1S(=O)(=O)C(F)(F)F [Compound 94, 2-(2-methoxyphenyl)-4-(2,2,6,6-tetramethyltetrahydro-2H-pyran-4-yl)1((trifluoromethyl)sulfonyl)-1H-imidazole]
pIC50 [1, 3]: 6.26
pIC50 [2, 13]: < 6.00
pIC50 [2, 5]: < 6.00

COc1ccccc1-c1nc(C2CC(C)(C)OC(C)(C)C2)cn1S(=O)(=O)C1CC1 [Compound 95, 1-(cyclopropylsulfonyl)-2-(2-methoxyphenyl)-4-(2,2,6,6-tetramethyltetrahydro-2H-pyran-4-yl)-1H-imidazole]
pIC50 [1, 3]: 5.00
pIC50 [2, 13]: < 6.00
pIC50 [2, 5]: < 6.00

COc1ccccc1-c1nc(C2CC(C)(C)OC(C)(C)C2)cn1S(=O)(=O)CC(C)C [Compound 96, 1-(isobutylsulfonyl)-2-(2-methoxyphenyl)-4-(2,2,6,6-tetramethyltetrahydro-2H-pyran-4-yl)-1H-imidazole]
pIC50 [1]: 6.11
pIC50 [2, 6]: 5.27

COc1ccccc1-c1nc(C2CC(C)(C)OC(C)(C)C2)cn1S(=O)(=O)c1ccc(Cl)cc1 [Compound 97, 1-((4-chlorophenyl)sulfonyl)-2-(2-methoxyphenyl)-4-(2,2,6,6-tetramethyltetrahydro-2H-pyran-4-yl)-1H-imidazole]
pIC50 [1, 3]: 6.29
pIC50 [2, 6]: 5.51

COc1ccccc1-c1nc(C2CC(C)(C)OC(C)(C)C2)cn1S(=O)(=O)c1ccc(F)cc1 [Compound 98, 1-((4-fluorophenyl)sulfonyl)-2-(2-methoxyphenyl)-4-(2,2,6,6-tetramethyltetrahydro-2H-pyran-4-yl)-1H-imidazol,]
pIC50 [1, 3]: 6.16
pIC50 [2, 9]: 5.04
pIC50 [2, 6]: 5.44

COc1ccccc1-c1nc(C2CC(C)(C)OC(C)(C)C2)cn1Cc1ccc(C#N)cc1 [Compound 99, 4-((2-(2-methoxyphenyl)-4-(2,2,6,6-tetramethyltetrahydro-2H-pyran-4-yl)-1H-imidazol-1-yl)methyl)benzonitrile]
pIC50 [1, 3]: 4.96
pIC50 [2, 13]: < 6.00
pIC50 [2, 5]: < 6.00

COc1ccccc1-c1nc(C2CC(C)(C)OC(C)(C)C2)cn1Cc1cccc(C#N)c1 [Compound 101, 3-((2-(2-methoxyphenyl)-4-(2,2,6,6-tetramethyltetrahydro-2H-pyran-4-yl)-1H-imidazol-1-yl)methyl) benzonitrile]
pIC50 [1, 3]: 5.45
pIC50 [2, 4]: < 6.00
pIC50 [2, 5]: < 6.00

COc1ccccc1-c1nc(C2(O)CC(C)(C)OC(C)(C)C2)cn1-c1ccc(Cl)cc1 [Compound 102, 4-(1-(4-chlorophenyl)-2-(2-methoxyphenyl)-1H-imidazol-4-yl)-2,2,6,6-tetramethyltetrahydro-2H-pyran-4-ol]
pIC50 [1, 3]: 7.43
pIC50 [2, 6]: 5.76
inhibition at 10 µM [2, 7]: 48%
